Key:
[1] = target: T1, Cripto protein (Mus musculus, UniProt P51865); assay: ELISA binding of recombinant Cripto to plate-coated peptide; conditions: peptide coated at 50 μM; Cripto 50 to 200 ng/ml
T1 construct: made in house
Experimental: To evaluate the binding of Cripto BP to either Cripto or ALK-4 receptor, BP or control peptides (CP; 50 μM) were coated on the surface of a 96-well microtiter plate and incubated over night at 4° C. Wells were washed five times with PBS Tween (PBT) and the aspecific sites blocked for 3 h at RT with 1% Bovine Serum Albumin (BSA) in PBS, 180 μL/well. Wells were washed as above, and the recombinant form of either ALK-4-humanFc chimeric receptor or Cripto protein in PBT were added at the indicated concentrations and incubated for 1 h at 37° C. followed by 1 hr at RT. After washing with PBT, to evaluate the binding of Cripto to 26-23-23, rabbit anti-Cripto IgG (6 μg/ml) were added to the plates and incubated 1 h at 37° C. and 1 hr at RT. After washing in PBT, a goat anti-rabbit […] (Santa Crutz) was added to the plate (0.3 μg/ml) and incubated 1 h at RT. Finally, the plate was developed as reported above. To evaluate the binding of ALK4 to 26-23-23, the extracellular domain of ALK-4 receptor fused to human Fc (R&D Systems) was added at the indicated concentrations and a goat anti-human Fc (Jackson ImmunoResearch; 1:1000) was used.

[2] = tested on: wild-type EBs; assay: Neuronal differentiation of wild-type EBs, βIII-tubulin immunofluorescence grades; format: cell-based, mouse; conditions: 25 μM peptide, 13 day-old EBs, mean±SD
Experimental: Undifferentiated ESCs were cultured as previously described^55.
Immunofluorescence analysis on adherent EBs, dopaminergic differentiated ESC and striatal grafts were performed as previously described^29, 35. The following primary antibodies were used: mouse anti-βIII-tubulin (Tuj1, 1:1000, Promega); anti-βIII tubulin (Sigma; 1:400), rabbit anti-tyrosine hydroxylase (TH, 1:200, PelFreez); mouse anti-TH (1:500, Chemicon); Nurr-1 (1:250, Santa Cruz); rabbit anti-Pitx3 (1:200, InVitrogen), rabbit anti-GIRK-2 (1:100, Chemicon); rat anti-DAT (1:1000, Chemicon); rabbit anti-5HT (1:200, Biogenesis); rabbit anti-NET (1:20, Chemicon), rabbit anti-GABA (1:500, Sigma); rabbit anti-Ki67 (1:1000, Neomarkers); and rat anti-Nestin (1:100, Developmental Studies Hybridoma Bank). Appropriate fluorophore conjugated secondary antibodies were used for visualization: (Cyanin-2, Cy3 and Cy5, 1:500, Jackson ImmunoResearch or Alexa-488, Alexa-594 and Alexa-633, 1:200, Molecular Probes).
Thus, if specific and effective, Cripto BP should be able to re-direct ESC fate and promote neural induction and neurogenesis. To address this issue, 2 day-old wild-type EBs were treated as described above, with either control (CP), dimeric (DP) or blocking (BP) peptides and both morphological and immunofluorescence analysis were performed on 13 day-old EBs. […]

[3] = tested on: Parkinsonian rats; assay: TH-ir neuron counts within striatal grafts; format: in vivo, rat; conditions: tumor-free animals
Experimental: Two days prior to grafting animals began cyclosporine-A immune suppression (10 mg/kg). Fourteen days post-lesioning selected animals (determined by behavioural rotations) were again anesthetized and stereotaxically injected with 1 μl of cell suspension at each of the 4 sites as previously described^29. Stereotaxic coordinates of 1st & 2nd Injection (from bregma): anterior 0.2 mm, lateral 3.0 mm, ventral 4.5 and 5.0 mm; 3rd & 4th Injection, anterior 1.0 mm, lateral 2.5 mm, ventral 4.5 and 5.0 mm; incisor bar 0 mm^57). ESCs were differentiated as outlined in FIG. 7a. In brief, ESC colonies were dissected away from the stromal feeder layer and dissociated using collagenase/dispase with agitation (700 μg/ml, Roche, for 20 min, 80 rpm). Cells were subsequently resuspended at a density of 3,000 cells/μl ready for grafting. Five rats received Sham injections (4 μl N2 media, 1 μl/site), 16 rats received a total of 12,000 ESCs (4×1 μl grafts) pre-treated with the Control peptide (of which 9 of these animals also received infusion of the Control peptide) and a further 16 rats received grafts pretreated with the Cripto blocking peptide (9 animals receiving infusion of the Cripto BP).
The peptide infusion was performed by implantation of a cannula into the striatum (Alzet brain infusion kit) connected to a subcutaneously placed osmotic minipump (Alzet) prefilled with either CP or Cripto BP. […]

T1 sequence (P51865 18-156 limits assumed): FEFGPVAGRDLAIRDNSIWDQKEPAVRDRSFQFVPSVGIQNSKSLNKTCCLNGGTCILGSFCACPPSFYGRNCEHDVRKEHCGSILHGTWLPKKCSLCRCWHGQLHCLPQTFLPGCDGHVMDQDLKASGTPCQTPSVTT

SMILES: C[S+]([O-])CCC(N)C(=O)N[C@@H](CSCc1ccccc1)C(=O)N[C@@H](CSCc1ccccc1)C(=O)N[C@@H](CCCCNC(=O)[C@H](CSCc1ccccc1)NC(=O)[C@H](CSCc1ccccc1)NC(=O)[C@@H](N)CC[S+](C)[O-])C(=O)N[C@@H](CCCCNC(=O)[C@H](CCCCNC(=O)[C@H](CSCc1ccccc1)NC(=O)[C@H](CSCc1ccccc1)NC(=O)[C@@H](N)CC[S+](C)[O-])NC(=O)[C@H](CSCc1ccccc1)NC(=O)[C@H](CSCc1ccccc1)NC(=O)[C@@H](N)CC[S+](C)[O-])C(=O)NCC(=O)O (some centres unmarked) [Cripto BP]
- binding of recombinant Cripto to immobilized peptide [1]: specifically recognized the immobilized Cripto BP, in a dose-dependent manner
- EBs with Grade 0 phenotype (absence of neurons) [2]: 17.4%±1.15
- EBs with Grade 3 phenotype (full neuronal differentiation) [2]: 45.6%±5.2
- TH+ cell counts within the graft ([3]; pre-treated ESCs + peptide infusion): 10815±887
- TH+ cells within the graft ([3]; pre-treated ESCs without infusion): 7491±1488

Reference: patent US20110028401A1, “CRIPTO BLOCKING MOLECULES AND THERAPEUTIC USES THEREOF” (CONSIGLIO NAZIONALE DELLE RICERCHE, priority 2009, published 2011)
